# Reference: patent US11566007B2, “Ras inhibitors” (Revolution Medicines, Inc., priority 2019, dated 2023)
# pEC50, pIC50: −log10 of the molar value. Where two headings read alike, the source gives them in different places.
# What was measured:
# [1] = system: NCI-H358 cells (K-Ras G12C); assay: Potency assay: pERK in NCI-H358 cells; type: cell-based, human; settings: Homo sapiens, NCI-H358; H358 KRAS G12C; read-out: pERK EC50
# How it was run: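 4 h cpd, 37 °C; 10-pt 3-fold series, 10 mM DMSO top stock, duplicates. Readout pERK: AlphaLISA SureFire Ultra or In-Cell Western (IR-800CW secondary, DRAQ5 DNA stain). IC50, 4-PL fit vs log conc.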
# NCI-H358 (K-Ras G12C) = assay: CellTiter-Glo cell viability assay, NCI-H358; type: cell-based, human; settings: Homo sapiens, NCI-H358, 120 h, class symbols; for pIC50: NCI-H358, 5-day treatment, read-out: Additional H358 Cell Viability assay data (K-Ras G12C, IC50); for IC50: read-out: Additional H358 Cell Viability assay data (K-Ras G12C, IC50, uM), NCI-H358, 5-day treatment
# How it was run: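 Viability measured by CellTiter-Glo luminescence on day 5 following direct addition of compound to plated cells. Values expressed as percent of mean DMSO signal; curves fitted with a four-parameter logistic model.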
SMILES,pEC50 [1],pIC50 (NCI-H358 (K-Ras G12C)),IC50 (NCI-H358 (K-Ras G12C)) [µM]
C=CC(=O)N1C[C@H](C)[C@H](C(=O)N(C)[C@H](C(=O)N[C@H]2Cc3cc(O)cc(c3)-c3ccc4c(c3)c(c(-c3ccccc3CN(C)C)n4CC)CC(C)(C)COC(=O)[C@@H]3CCCN(N3)C2=O)C2CCCC2)C1 [Example A43],> 5.30,7.00 to 8.00,–
C=CC(=O)N1CC[C@H](C(=O)N(C)[C@H](C(=O)N[C@H]2Cc3cc(O)cc(c3)-c3ccc4c(c3)c(c(-c3cccnc3COCC)n4CC)CC(C)(C)COC(=O)[C@@H]3CCCN(N3)C2=O)C(C)C)C1 [Example A44],> 5.30,7.00 to 8.00,–
C=CC(=O)N1CC[C@H](C(=O)N(C)[C@H](C(=O)N[C@H]2Cc3cc(O)cc(c3)-c3ccc4c(c3)c(c(-c3cccnc3)n4CC)CC(C)(C)COC(=O)[C@@H]3CCCN(N3)C2=O)C(C)C)C1 [Example A45],> 5.30,7.00 to 8.00,–
CCn1c(-c2ccccc2CN(C)C)c2c3cc(ccc31)-c1cc(O)cc(c1)C[C@H](NC(=O)[C@H](C(C)C)N(C)C(=O)c1ccc(NC(=O)/C=C/CN(C)C)cn1)C(=O)N1CCC[C@H](N1)C(=O)OCC(C)(C)C2 [Example A46],> 5.30,< 6.00,–
CCn1c(-c2ccccc2CN(C)C)c2c3cc(ccc31)-c1cc(O)cc(c1)C[C@H](NC(=O)[C@H](C(C)C)N(C)C(=O)[C@H]1CCN(C(=O)/C=C/CN(C)C)C1)C(=O)N1CCC[C@H](N1)C(=O)OCC(C)(C)C2 [Example A47],> 5.30,7.00 to 8.00,–
C=CC(=O)N1CC[C@H](C(=O)N(C)[C@H](C(=O)N[C@H]2Cc3cc(O)cc(c3)-c3ccc4c(c3)c(c(-c3ccc5c(c3)OCCN5C)n4CC)CC(C)(C)COC(=O)[C@@H]3CCCN(N3)C2=O)C(C)C)C1 [Example A50],> 5.30,6.00 to 7.00,–
C=CC(=O)N1CC[C@H](C(=O)N(C)[C@H](C(=O)N[C@H]2Cc3cc(O)cc(c3)-c3ccc4c(c3)c(c(-c3ccc(CN(C)C)cc3COC)n4CC)CC(C)(C)COC(=O)[C@@H]3CCCN(N3)C2=O)C(C)C)C1 [Example A51],> 5.30,7.00 to 8.00,–
C=CC(=O)N1C[C@H](C)[C@H](C(=O)N(C)[C@H](C(=O)N[C@H]2Cc3cc(O)cc(c3)-c3ccc4c(c3)c(c(-c3ccccc3CN(C)C)n4CC)CC(C)(C)COC(=O)[C@@H]3CCCN(N3)C2=O)C(C)C)C1 [Example A52],> 5.30,7.00 to 8.00,–
"CCn1c(-c2cccnc2COC)c2c3cc(ccc31)-c1cc(O)cc(c1)C[C@H](NC(=O)[C@H](C(C)C)N(C)C(=O)[C@H]1CCN(C(=O)/C=C/CN(C)C)C1)C(=O)N1CCC[C@H](N1)C(=O)OCC(C)(C)C2 [Example A54, (2S)-2-{1-[(3S)-1-[(2E)-4-(dimethylamino)but-2-enoyl]pyrrolidin-3-yl]-N-methylformamido}-N-[(8S,14S)-22-ethyl-4-hydroxy-21-[2-(methoxymethyl)pyridin-3-yl]-18,18-dimethyl-9,15-dioxo-16-oxa-10,22,28-triazapentacyclo[18.5.2.1^2,^6.1^10,^14.0^23,^27]nonacosa-1(26),2,4,6(29),20,23(27),24-heptaen-8-yl]-3-methylbutanamide]",> 5.30,7.00 to 8.00,–
C=CC(=O)N1CC[C@H](C(=O)N(C)[C@H](C(=O)N[C@H]2Cc3cc(O)cc(c3)-c3ccc4c(c3)c(c(-c3cccnc3COC)n4CC)CC(C)(C)COC(=O)[C@@H]3CCCN(N3)C2=O)C2CCCC2)C1 [Example A55],> 5.30,> 8.00,–
C=CC(=O)N1C[C@H](C)[C@H](C(=O)N(C)[C@H](C(=O)N[C@H]2Cc3cc(O)cc(c3)-c3ccc4c(c3)c(c(-c3cccnc3COC)n4CC)CC(C)(C)COC(=O)[C@@H]3CCCN(N3)C2=O)C(C)C)C1 [Example A56],> 5.30,–,< 0.01
C=CC(=O)N1C[C@H](C)[C@H](C(=O)N(C)[C@H](C(=O)N[C@H]2Cc3cc(O)cc(c3)-c3ccc4c(c3)c(c(-c3cccnc3COC)n4CC)CC(C)(C)COC(=O)[C@@H]3CCCN(N3)C2=O)C2CCCC2)C1 [Example A57],> 5.30,> 8.00,–
C=CC(=O)N1CC[C@H](C(=O)N(C)[C@H](C(=O)N[C@H]2Cc3cc(O)cc(c3)-c3ccc4c(c3)c(c(C3=C(COC)COCC3)n4CC)CC(C)(C)COC(=O)[C@@H]3CCCN(N3)C2=O)C(C)C)C1 [Example A58],> 5.30,7.00 to 8.00,–
C=CC(=O)N1CC[C@H](C(=O)N(C)[C@H](C(=O)N[C@H]2Cc3cc(OC(C)=O)cc(c3)-c3ccc4c(c3)c(c(-c3ccccc3CN(C)C)n4CC)CC(C)(C)COC(=O)[C@@H]3CCCN(N3)C2=O)C(C)C)C1 [Example A59],> 5.30,–,0.1 to 1
C=CC(=O)N1CC[C@H](C(=O)N(C)[C@H](C(=O)N[C@H]2Cc3cc(O)cc(c3)-c3ccc4c(c3)c(c(-c3cccnc3N3CC(OC)C3)n4CC)CC(C)(C)COC(=O)[C@@H]3CCCN(N3)C2=O)C(C)C)C1 [Example A60],> 5.30,7.00 to 8.00,–
C=CC(=O)N1CC[C@H](C(=O)N(C)[C@H](C(=O)N[C@H]2Cc3cc(O)cc(c3)-c3ccc4c(c3)c(c(-c3cncnc3)n4CC)CC(C)(C)COC(=O)[C@@H]3CCCN(N3)C2=O)C(C)C)C1 [Example A61],> 5.30,7.00 to 8.00,–
C=CC(=O)N1CC[C@H](C(=O)N(C)[C@H](C(=O)N[C@H]2Cc3cc(O)cc(c3)-c3ccc4c(c3)c(c(-c3cncc(C#N)c3)n4CC)CC(C)(C)COC(=O)[C@@H]3CCCN(N3)C2=O)C(C)C)C1 [Example A62],> 5.30,7.00 to 8.00,–
C=CC(=O)N1CC[C@@]2(CCCN([C@H](C(=O)N[C@H]3Cc4cc(O)cc(c4)-c4ccc5c(c4)c(c(-c4ccccc4CCOC)n5CC)CC(C)(C)COC(=O)[C@@H]4CCCN(N4)C3=O)C(C)C)C2=O)C1 [Example A63],> 5.30,6.00 to 7.00,–
C=CC(=O)N1CC[C@H](C(=O)N(C)[C@H](C(=O)N[C@H]2Cc3cc(O)cc(c3)-c3ccc4c(c3)c(c(C3=C(COC)CCCC3)n4CC)CC(C)(C)COC(=O)[C@@H]3CCCN(N3)C2=O)C(C)C)C1 [Example A64],> 5.30,7.00 to 8.00,–
C=CC(=O)N1CC[C@H](C(=O)N(C)[C@H](C(=O)N[C@H]2Cc3cc(O)cc(c3)-c3ccc4c(c3)c(c([C@@H]3CC=CN=C3COC)n4CC)CC(C)(C)COC(=O)[C@@H]3CCCN(N3)C2=O)C(C)C)C1 [Example A65],> 5.30,6.00 to 7.00,–
C=CC(=O)N1CC[C@H](C(=O)N(C)[C@H](C(=O)N[C@H]2Cc3cc(O)cc(c3)-c3ccc4c(c3)c(c(-c3cccnc3COC)n4C)CC(C)(C)COC(=O)[C@@H]3CCCN(N3)C2=O)C(C)C)C1 [Example A66],> 5.30,7.00 to 8.00,–
"CCn1c(-c2cccnc2COC)c2c3cc(ccc31)-c1cc(O)cc(c1)C[C@H](NC(=O)[C@H](C(C)C)N(C)C(=O)c1ccc(NC(=O)/C=C/CN(C)C)cn1)C(=O)N1CCC[C@H](N1)C(=O)OCC(C)(C)C2 [Example A67, (2E)-4-(dimethylamino)-N-(6-{[(1S)-1-{[(8S,14S)-22-ethyl-4-hydroxy-21-[2-(methoxymethyl)pyridin-3-yl]-18,18-dimethyl-9,15-dioxo-16-oxa-10,22,28-triazapentacyclo[18.5.2.1^2,^6.1^10,^14.0^23,^27]nonacosa-1(26),2,4,6(29),20,23(27),24-heptaen-8-yl]carbamoyl}-2-methylpropyl](methyl)carbamoyl}pyridin-3-yl)but-2-enamide]",> 5.30,6.00 to 7.00,–
C=CC(=O)N1CC[C@@]2(CCN([C@H](C(=O)N[C@H]3Cc4cc(O)cc(c4)-c4ccc5c(c4)c(c(-c4ccccc4CCOC)n5CC)CC(C)(C)COC(=O)[C@@H]4CCCN(N4)C3=O)C(C)C)C2=O)C1 [Example A68],> 5.30,6.00 to 7.00,–
C=CS(=O)(=O)N1CC[C@H](C(=O)N(C)[C@H](C(=O)N[C@H]2Cc3cc(O)cc(c3)-c3ccc4c(c3)c(c(-c3cccnc3COC)n4CC)CC(C)(C)COC(=O)[C@@H]3CCCN(N3)C2=O)C(C)C)C1 [Example A69],> 5.30,7.00 to 8.00,–
C=CC(=O)N1CC(C(=O)N(C)[C@H](C(=O)N[C@H]2Cc3cc(O)cc(c3)-c3ccc4c(c3)c(c(-c3cccnc3COC)n4CC)CC(C)(C)COC(=O)[C@@H]3CCCN(N3)C2=O)C(C)C)C1 [Example A70],> 5.30,7.00 to 8.00,–
"CCn1c(-c2cccnc2COC)c2c3cc(ccc31)-c1cc(O)cc(c1)C[C@H](NC(=O)[C@H](C(C)C)N(C)C(=O)C1CN(C(=O)/C=C/CN(C)C)C1)C(=O)N1CCC[C@H](N1)C(=O)OCC(C)(C)C2 [Example A71, (2S)-2-(1-{1-[(2E)-4-(dimethylamino)but-2-enoyl]azetidin-3-yl}-N-methylformamido)-N-[(8S,14S)-22-ethyl-4-hydroxy-21-[2-(methoxymethyl)pyridin-3-yl]-18,18-dimethyl-9,15-dioxo-16-oxa-10,22,28-triazapentacyclo[18.5.2.1^2,^6.1^10,^14.0^23,^27]nonacosa-1(26),2,4,6(29),20,23(27),24-heptaen-8-yl]-3-methylbutanamide]",> 5.30,6.00 to 7.00,–
C=CC(=O)N1CC[C@H](C(=O)N(C)[C@H](C(=O)N[C@H]2Cc3cc(O)cc(c3)-c3ccc4c(c3)c(c(-c3cncc(CN(C)C)c3)n4CC)CC(C)(C)COC(=O)[C@@H]3CCCN(N3)C2=O)C(C)C)C1 [Example A73],> 5.30,7.00 to 8.00,–
C=CC(=O)N1CC[C@H](C(=O)N(C)[C@H](C(=O)N[C@H]2Cc3cc(O)cc(c3)-c3ccc4c(c3)c(c(-c3cnccc3C)n4CC)CC(C)(C)COC(=O)[C@@H]3CCCN(N3)C2=O)C(C)C)C1 [Example A77],> 5.30,7.00 to 8.00,–
CCn1c(-c2ccccc2COC)c2c3cc(ccc31)-c1cc(O)cc(c1)C[C@H](NC(=O)[C@H](C(C)C)N(C)C(=O)[C@H]1CCN(C(=O)/C=C/CN(C)C)C1)C(=O)N1CCC[C@H](N1)C(=O)OCC(C)(C)C2 [Example A79],> 5.30,7.00 to 8.00,–
